Experimental data reported in paper PMC10635480, “An engineered thermally tolerant apo-cytochrome scaffold for metal-less incorporation of heme derivative” (PLOS ONE, 2023).

Key:
[1] = target: T1, rC552 C14A (cytochrome c552, apo-form) (Thermus thermophilus, UniProt Q5SME3, C31A); assay: time-dependent UV-Vis reconstitution; format: binding; settings: equimolar 5 uM, 25 °C
T1 construct: gene cycA; recombinant, E. coli BL21(DE3), pET-rC552 C14A; no tag mentioned; heme-free apo-form isolated by butyl-Sepharose
T1 sequence (Q5SME3 18-148 C31A): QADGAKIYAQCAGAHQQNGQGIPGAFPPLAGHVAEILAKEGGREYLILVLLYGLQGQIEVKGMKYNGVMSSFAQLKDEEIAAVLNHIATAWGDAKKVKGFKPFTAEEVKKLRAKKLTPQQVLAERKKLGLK

[2] = target: T2, rC552 C14A (cytochrome c552, apo-form) (Thermus thermophilus, UniProt Q5SME3, C31A/M86F); format: binding
T2 construct: gene cycA; recombinant, E. coli BL21(DE3), pET-rC552 C14A; no tag mentioned; heme-free apo-form isolated by butyl-Sepharose
T2 sequence (Q5SME3 18-148 C31A/M86F): as the sequence (Q5SME3 18-148 C31A) above, with M69F counted along it

Tm of reconstituted protein (not dTm) [2]: 58 °C
Compound: C=CC1=C(C)c2cc3[nH]c(cc4nc(cc5[nH]c(cc1n2)c(C)c5CCC(=O)O)C(CCC(=O)O)=C4C)c(C)c3C=C [protoporphyrin IX (metal-free)]
time-dependent UV-Vis reconstitution [1]: Time-dependent UV–Vis spectra show a rather slow reconstitution process while mixing equal concentrations
